Reference: patent US12285402B2, “Compositions and methods for treating pulmonary disorders” (GNT Pharma Co., Ltd., priority 2021, dated 2025)

Tests used:
OVA-challenged mice = experiment: OVA-induced mouse asthma model; format: in vivo, Balb/C mice
Procedure: Seven-week-old female Balb/C mice were sensitized by intraperitoneal injection (IP, 200 μL/mouse) of 100 μg OVA complexed with aluminum potassium sulfate on days 0, 7, and 14. On days 26, 27, and 28, mice were challenged with 5% aerosolized OVA in 48 mL sterile phosphate-buffered saline (PBS). The control group received sterile PBS with aluminum potassium sulfate via the IP route on days 0, 7, 14, and 48 mL of aerosolized sterile PBS on days 26, 27, and 28. Mice in the ATPB group were orally administered 10 mg/kg bid ATPB on days […], 27, 28, and 29.
(§1) Rats and mice were sacrificed, and BALF was obtained by cannulating the trachea and lavage three times with 2 mL DPBS. BALF cells were centrifuged at 1000×g for 10 min at 4° C. The supernatants were collected and stored at −80° C. to measure inflammatory factors. The pelleted BALF cells were resuspended in 1 mL PBS and quantified using a hematology analyzer (Mindray Medical International Ltd., Shenzhen, China).

[1] = system: PPE-induced COPD model mice; experiment: Porcine pancreatic elastase (PPE)-induced emphysema model, post-treatment; format: in vivo, C57BL/6J mice; details: started 3 days after PPE, sacrifice day 21
Procedure: Porcine Pancreatic Elastase (PPE)-induced emphysema model was used to measure the post-treatment effects of ATPB in COPD model mice. C57BL/6J mice were intratracheally injected with PPE (0.8 U per mouse) in PBS via a micropipette. The mice were randomly divided into […]: (A) emphysema group, which was exposed to intratracheal PPE; (B) emphysema+ATPB (5 mg/kg ATPB, PO, bid); (C) emphysema +ATPB (10 mg/kg ATPB, PO, bid); (D) emphysema +roflumilast (10 mg/kg, PO, qd); and (E) emphysema +prednisolone (1 mg/kg, PO, qd). All treatments were started 3 days after the PPE injection. Mice were sacrificed 21 days after the PPE injection.
as §1

[2] = system: smoking-induced COPD rats; experiment: Rat model of COPD by smoke exposure and intratracheal LPS; format: in vivo; details: for IL-6 gene expression in the lungs (RT-PCR) / MCP-1 gene expression in the lungs (RT-PCR) / TNF-α gene expression in the lungs (RT-PCR): FIG. 7, P<0.01 or P<0.05
Procedure: As described previously, the rat model of COPD was established by smoke exposure and intratracheal instillation of lipopolysaccharide (LPS). Experimental rats, including the COPD and drug-treated groups (10 mg/kg ATPB), underwent whole-body exposure to tobacco smoke from 10 cigarettes in a tobacco smoke chamber (90×40×30 cm, made of Plexiglas) twice a day with 2-hour smoke-free intervals, every day for 12 weeks.
Animals from the two smoke-exposed groups were administered 180 μg/180 μL of LPS solution intratracheally on two occasions, on the first and 14th days of tobacco smoke exposure. Additionally, rats in the ATPB group were orally administered ATPB (10 mg/kg ATPB). All rats were sacrificed on the 91st day.
as §1
Total RNA from the lung tissue was extracted using TRIzol reagent (Invitrogen) according to the manufacturer's instructions. cDNA was synthesized using a cDNA Synthesis Kit (Life Technologies). SYBR Green Master Mix (Thermo Fisher) was used for PCR amplification on a StepOnePlus Real-Time PCR System (Applied Biosystems, Foster City, Calif., USA).
The lungs of the rats were removed at week 12 and fixed in 10% neutral buffered formalin for histopathological analysis. Formalin-fixed tissues were embedded in paraffin, sectioned at […], and stained with hematoxylin and eosin (HE) and Alcian blue-periodic acid-Schiff (AB-PAS) to reveal histopathological lesions.

[3] = ATPB 10 mg/kg bid oral, vs OVA-challenged mice, FIG. 2
[4] = ATPB 10 mg/kg bid oral, vs vehicle group, FIG. 3
[5] = ATPB 10 mg/kg, vs OVA-challenged mice, FIG. 4
[6] = ATPB 10 mg/kg, vs COPD rats, FIG. 6

## CC(=O)Oc1ccc(NCCc2ccc(C(F)(F)F)cc2)cc1C(=O)O [ATPB, 2-acetoxy-5-[2-(4-trifluoromethyl-phenyl)-ethylamino]-benzoic acid]
OVA-challenged mice; [3]
  IL-4 production in BALF (ELISA): significantly downregulated
  IL-5 production in BALF (ELISA): significantly downregulated
OVA-challenged mice; ATPB 10 mg/kg bid oral, vs OVA-challenged mice, serum 24 h after last OVA challenge
  production of IgE in the serum (ELISA): significantly reduced
OVA-challenged mice; [4]
  EO (eosinophil) cell count in BALF: markedly reduced
  LY (lymphocyte) cell count in BALF: markedly reduced
  MO (monocyte) cell count in BALF: markedly reduced
  WBC cell count in BALF: markedly reduced
OVA-challenged mice; [5]
  cell infiltration into peribranchial lung lesions (H&E staining): notably downregulated
  mucus hypersecretion in the bronchial airways (PAS staining): attenuated
OVA-challenged mice; after last OVA challenge, FIG. 3 legend
  OVA-induced inflammatory cell counts in BALF: significantly reduced
OVA-challenged mice; mouse asthma model
  OVA-induced eotaxin production: attenuated
OVA-challenged mice; serum 24 h after last OVA aerosol challenge, FIG. 1
  OVA-specific IgE levels in serum (ELISA): significantly lowered
[1]; 10 mg/kg ATPB PO bid, vs vehicle, FIG. 8, P<0.05
  number of WBC in BALF: significantly reduced
[2]; ATPB 10 mg/kg oral, LPS and chronic smoking, 12 weeks, vs vehicle group, FIG. 5
  number of WBCs in BALF: markedly reduced
[2]; ATPB 10 mg/kg oral, vs COPD group, FIG. 6
  alveolar sacs and alveolar spaces enlargement (H&E lung histopathology): relieved
[2]; [6]
  goblet cell proliferation (PAS+ cells): decreased
  mucous secretion (PAS staining): reduced levels
[2]; vs COPD group
  IL-6 gene expression in the lungs (RT-PCR): decreased
  MCP-1 gene expression in the lungs (RT-PCR): decreased
  TNF-α gene expression in the lungs (RT-PCR): decreased

## C[C@]12C=CC(=O)C=C1CC[C@@H]1[C@@H]2[C@@H](O)C[C@@]2(C)[C@H]1CC[C@]2(O)C(=O)CO [prednisolone, reference compound]
[1]; prednisolone 1 mg/kg PO qd, FIG. 8
  number of WBC in BALF: Neither roflumilast nor prednisolone reduced the WBC count
[2]; vs COPD group
  IL-6 gene expression in the lungs (RT-PCR): decreased
  MCP-1 gene expression in the lungs (RT-PCR): decreased
  TNF-α gene expression in the lungs (RT-PCR): decreased

## O=C(Nc1c(Cl)cncc1Cl)c1ccc(OC(F)F)c(OCC2CC2)c1 [roflumilast]
[1]; roflumilast 10 mg/kg PO qd, FIG. 8
  number of WBC in BALF: Neither roflumilast nor prednisolone reduced the WBC count
